Read-outs that look alike come from different tables or passages of the source.
Columns and labels:
E. coli K12 ATCC 25404 = assay: Batch culture biomass yield and glucose removal; assay type: cell-based, Escherichia coli
Method: Biomass determinations were by Millipore Filtration using Millipore type H.A. 0.45 µ filters. Samples were centrifuged @ 15,000 x for 10 min., supernatant was filtered through a dried and preweighed filter. The centrifuged pellet was then vortexed in 2 mL of D.I. water and filtered also. Samples were then dried overnight @ 105°C and re-weighed. Biomass was the weight of the dried filter less the tared filter weight.
Glucose determinations were carried out on the centrifuged reactor sample supernatants using glucose enzymatic assay (hexokinase and glucose 6-phosphate dehydrogenase) UV-15 Sigma Chemical Co., St. Louis, MO. (Assay set-up pamphlet accompanies kit). Spectrophotometric measurements were run on a Zeiss PM-6 Spektralphotometer, Carl Zeiss, 7082 Oberkochen, West Germany.
Escherichia coli K12 ATCC 25404 was grown to 175 K.U. (after 48 hours) on 10 g/1 dextrose, 75 mL/1 25x VBE, 5 mL/1 trace mixture. Ten mL of this culture was then used as seed for 300 mL of media of the same composition and dosed with varying concentrations of CCCP, myristic acid and salicylanilide.
Initial and 72 hour measurements for glucose and biomass were run by the previously described methods.

Saccharomyces cerevisiae = assay: Yeast-alcohol batch fermentation with uncoupler dosing; assay type: cell-based; conditions: 2.0 ppm CCCP
Method: Saccharomyces cerevisiae (Institute of Marine Sciences, U. Of Miami Culture Collection) was used in the following fermentation medium: 1% glucose, 13.4 g/1 yeast nitrogen Base (BBL, Cockeysville, MD), 0.5 g/1 sodium thioglycollate. pH was 5.68, temperature 33°C, agitation 8.5/10 on Fisher Versamix stirplate. CCCP was dosed at 2.0 mg/l.
Reaction vessel was a 3.0 liter working volume fermenter jar - New Brunswick Scientific. Temperature control was held by recirculation of a 33°C hot water bath through the reactor heating coils by a Little Giant Model 1 submergible pump (Little Giant Pump Co., Oklahoma City, OK).
Glucose and biomass determinations were made by the previously mentioned techniques. Ethanol determinations was by the alcohol dehydrogenase method 331-UV (Sigma Chemical Co., St. Louis, MO). Reactors were run for approximately 150 hours with sampling times varying throughout the experiment.

Klebsiella pneumoniae [1] = assay: Standard bacterial counts on the CO2 blowoff vials, first series; assay type: cell-based
Method: (§1) The first series of experiments involved the measurement of the amount of C02 evolved from aerobically growing cultures of the representative organism Klebsiella in the presence and absence of uncoupling agents. The known uncouplers 2, 4 dinitrophenol (DNP) and carbonyl cyanide m-chlorophenyl hydrazone (CCCP) were tested along with bis (tricholoromethyl) sulfone (TCMS) and beta-bromo-beta-nitrostyrene (BNS). It can be seen from the data that CCCP caused large increases in C02 evolution over the untreated controls at all concentrations used, with the largest increase (29%) at 5 µg/mL (24.4 uM). […] Bacterial counts also reflected the lack of uncoupling activity. […] Largest increase in C02 blowoff came at 50 ppm (32%). BNS gave a mixed pattern as opposed to those of DNP and CCCP. […] Even at 10 µg/mL, the bacterial count was reduced ~ 50% while still giving greater C02 blowoff than control cultures.
The procedure utilized to perform the first series of experiments was as follows: • Sealed vials containing 8 mL of minimal salts medium (Composition: K2HPO4-39, KH2PO4-lg, MgSO4-0.2g, (NN4)2SO4^-1g, D-glucose-5g (optional) in 1 liter. Autoclave and adjust pH to 6.8) lacking any carbon source were each injected with 1 mL of a suspension of Klebsiella pneumoniae. […] Vials were read for C02 blowoff at the times indicated on the appropriate Tables. […]

Klebsiella pneumoniae [2] = assay: microbe, parasite or virus in culture; assay type: cell-based
Method: as §1
The procedure utilized to perform the first series of experiments was as follows: • Sealed vials containing 8 mL of minimal salts medium (Composition: K2HPO4-39, KH2PO4-lg, MgSO4-0.2g, (NN4)2SO4^-1g, D-glucose-5g (optional) in 1 liter. Autoclave and adjust pH to 6.8) lacking any carbon source were each injected with 1 mL of a suspension of Klebsiella pneumoniae. (Klebsiella was grown overnight, shaken at 37°C, in minimal salts medium containing glucose to a heavy cell suspension. The cells were centrifuged at 10,000 g and resuspended to a turbidity of 150 Klett units [Klett-Summerson photometer, #42 blue filter) in minimal salts medium [MSM], no glucose. These cells were again centrifuged, and resuspended in MSM at 1/10 the volume used previously. This 10X cell suspension was used as the standard inoculum for the vials.) The vials were- simultaneously injected with 1 mL of a 1 µ Ci/mL solution of ^14C-U-D glucose and the appropriate concentration of material to be tested. The compounds tested were fed at concentrations of […]. Controls received no test material and all vials were shaken during the course of the experiments at 37°C. Vials were read for C02 blowoff at the times indicated on the appropriate Tables. Standard bacterial counts were done on each vial after the end of each experimental series. [formula] [formula] [formula] [formula]

Klebsiella = assay: microbe, parasite or virus in culture; assay type: cell-based; conditions: Klebsiella, read-out: increase in C02 blowoff
Method: These patterns were the results of Klebsiella cultures having been grown on glucose (^14C-label). In nature, and in waste treatment facilities, many organic carbon compounds, both simple and complex, would be available for degradation. The known uncouplers and BNS were tested for their ability to increase C02 evolution from cultures exposed to the common substrates lactate, glycine, glycerol, and a denatured protein mixture. […] This was expected in the case of glycine but it was thought that a more complex protein might be degraded and portions used for some energyproduction. It was hoped that these compounds might be a more representative group (more abundant in waste treatment) than simple sugars for determining the extent of activity of BNS. […] Lactate, a common intermediate in microbial metabolism, and a compound which would normally be used as an oxidizable substrate for running the cytochrome chain, gave a more representative response. BNS treated cultures gave increased C02 blowoff (an increase as high as 130% at 5 µg/mL) as did both known uncouplers. […] When glycerol was used as the labeled substrate, BNS treated cultures gave increased C02 at concentrations up to 5 µg/mL.
The procedure used for determining the CO2 evolution was similar to the procedure described previously. Cells having been grown overnight in MSM and glucose were centrifuged and resuspended in MSM + glucose (cold) and used as inoculum. No other cold carbon source (unlabeled) was added. ^14C-labeled substrates (lactate, glycerol, etc.) obtained from New England Nuclear were used and supplied the radiolabeled carbon for the detection of ^14CO2. BNS was utilized in concentrations of 0.5 - 10 µg/mL. Fixed concentrations of 5 µg/mL CCCP and DNP were included for comparative purposes. The following data were obtained in these experiments.

[3] = Escherichia coli, ATCC25404, 72 h, read-out: drop in biomass yield

Q: How did the glucose removal efficiency (E. coli K12 ATCC 25404; 0.4 ppm, batch, 72 hour) turn out when `N#CC(C#N)=NNc1cccc(Cl)c1` [CCCP, carbonyl cyanide m-chlorophenyl hydrazone] was run?
A: Its glucose removal efficiency is 100%.

Q: What about the “carbon (glucose) removal efficiency” value (E. coli K12 ATCC 25404; 1.0 ppm, batch, 72 hour) of the same compound?
A: The value was 98.2%.

Q: What about the “drop of glucose removal efficiency from control” value (E. coli K12 ATCC 25404; 1.9 ppm, batch, 72 hour) of the same compound?
A: The value was 4.8%.

Q: And the glucose removal efficiency (E. coli K12 ATCC 25404; 1.9 ppm, batch, 72 hour)?
A: Its glucose removal efficiency is 95.2%.

Q: What about the inhibition of growth at 0.4 ppm (E. coli K12 ATCC 25404; [3]) of the same compound?
A: Its inhibition of growth at 0.4 ppm is 14.6%.

Q: And the inhibition of growth at 1 ppm (E. coli K12 ATCC 25404; [3])?
A: Its inhibition of growth at 1 ppm is 28%.

Q: What about the inhibition of growth at 1.9 ppm (E. coli K12 ATCC 25404; [3]) of the same compound?
A: The inhibition of growth at 1.9 ppm was 42.7%.

Q: And the “g ETOH formed hr. max.” value (Saccharomyces cerevisiae)?
A: Its value is 0.45.

Q: What about the “g ETOH formed hr. max., change vs Control” value (Saccharomyces cerevisiae) of the same compound?
A: The value was “+41.6%”.

Q: What about the “g glucose consumed/hr. max.” value (Saccharomyces cerevisiae) of the same compound?
A: Its value is 0.39.

Q: And the “g glucose consumed/hr. max., change vs Control” value (Saccharomyces cerevisiae)?
A: Its value is “+88%”.

Q: What about the “g cells mole glucosef” value (Saccharomyces cerevisiae; f = final) of the same compound?
A: The value was 6.59.

Q: And the “g cells mole glucosef, change vs Control” value (Saccharomyces cerevisiae; f = final)?
A: Its value is -44.1%.

Q: What about the “mole ETOH/Mole Glucosef g cells” value (Saccharomyces cerevisiae; f = final) of the same compound?
A: Its value is 4.02.

Q: And the “mole ETOH/Mole Glucosef g cells, change vs Control” value (Saccharomyces cerevisiae; f = final)?
A: Its value is “+105.1%”.

Q: And the “moles ETOH/ mole glucosef*” value (Saccharomyces cerevisiae; f = final)?
A: The value was 1.39.

Q: What about the “moles ETOH/ mole glucosef*, change vs Control” value (Saccharomyces cerevisiae; f = final) of the same compound?
A: The value was “+9.4%”.

Q: What about the bacterial counts (Klebsiella pneumoniae [1]; 50 µg/mL) of the same compound?
A: Its bacterial counts is “the same as the control levels”.

Q: And the activation at 5 µg/mL (Klebsiella pneumoniae [2]; Klebsiella pneumoniae, 5 µg/mL (24.4 uM), 14C-glucose, read-out: largest increase in C02 evolution over the untreated controls)?
A: Its activation at 5 µg/mL is 29%.

Q: What about the activation at 5 µg/mL (Klebsiella; 14C-lactate as labeled substrate, 5 µg/mL) of the same compound?
A: The activation at 5 µg/mL was 151%.

Q: Which results are given for `O=[N+]([O-])c1ccc(O)c([N+](=O)[O-])c1` [DNP, 2, 4 dinitrophenol, reference compound]?
A: toxic effects (bacterial counts) (Klebsiella pneumoniae [1]; even at 50 ppm): no toxic effects; activation at 50 ppm (Klebsiella pneumoniae [2]; Klebsiella pneumoniae, read-out: Largest increase in C02 blowoff): 32%; minimal effective concentration (Klebsiella pneumoniae [2]; Klebsiella pneumoniae, read-out: concentrations causing significant increases in C02 blowoff): > 5 µg/mL; activation at 5 µg/mL (Klebsiella): 83%

Q: For `CCCCCCCCCCCCCC(=O)O` [Myristic acid, myristic acid], which inhibition of growth at 25 ppm (E. coli K12 ATCC 25404; Escherichia coli, ATCC25404, 25 ppm, batch, 72 hour, read-out: reduction in biomass yield) is on record?
A: The inhibition of growth at 25 ppm was 19.5%.

Q: And the “inhibitory effects on glucose removal” value (E. coli K12 ATCC 25404; up to 25 ppm, batch, 72 hour)?
A: Its value is “no inhibitory effects”.

Q: Which glucose removal efficiency (E. coli K12 ATCC 25404; 50.5 ppm, batch, 72 hour) does the source give for `O=C(Nc1ccccc1)c1ccccc1O` [Salicylanilide, salicylanilide] here?
A: The glucose removal efficiency was 99.7%.

Q: What about the inhibition of growth at 50.5 ppm (E. coli K12 ATCC 25404; Escherichia coli, ATCC25404, 50.5 ppm, batch, 72 hour, read-out: drop in biomass yield) of the same compound?
A: The inhibition of growth at 50.5 ppm was no more than 40.2%.

Q: `O=S(=O)(C(Cl)(Cl)Cl)C(Cl)(Cl)Cl` [TCMS, bis (tricholoromethyl) sulfone] was tested. Which “uncoupling property (C02 evolution)” value (Klebsiella pneumoniae [2]; all concentrations, 14C-glucose) did it give?
A: The value was “no uncoupling property”.

From patent publication EP0162545A2, “Enhanced bioconversion processes” (BETZ EUROPE, INC., priority 1984, dated 1985)
